From paper PMC5034429, “Enantioselective cascade biocatalysis for deracemization of 2-hydroxy acids using a three-enzyme system” (Microbial Cell Factories, 2016)

Molecular target: T1, (S)-2-HADH from P. aeruginosa NUST (Pseudomonas aeruginosa, UniProt R9RKA7)
T1 construct: synthetic gene in pET28b, E. coli BL21(DE3); resting cells; ~42 kDa on SDS-PAGE; FMN flavoprotein; strain also misprinted NSUT
T1 sequence (R9RKA7 1-393): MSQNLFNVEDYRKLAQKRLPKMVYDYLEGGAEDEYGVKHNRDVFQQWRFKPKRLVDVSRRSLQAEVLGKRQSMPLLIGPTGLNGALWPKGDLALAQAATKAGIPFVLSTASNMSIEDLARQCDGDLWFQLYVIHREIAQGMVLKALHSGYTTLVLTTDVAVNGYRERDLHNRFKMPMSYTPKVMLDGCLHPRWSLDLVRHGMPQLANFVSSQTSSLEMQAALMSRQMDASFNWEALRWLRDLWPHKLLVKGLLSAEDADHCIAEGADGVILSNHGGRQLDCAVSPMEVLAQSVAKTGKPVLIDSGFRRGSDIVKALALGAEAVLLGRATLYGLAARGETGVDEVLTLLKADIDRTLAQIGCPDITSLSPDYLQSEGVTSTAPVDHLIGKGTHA
Assay: apoenzyme reactivation
Assay type: biochemical
Details: flavin removal, then addition of FMN

Question: For `Cc1cc2nc3c(=O)[nH]c(=O)nc-3n(C[C@H](O)[C@H](O)[C@H](O)COP(=O)(O)O)c2cc1C` [FMN], which apoenzyme reactivation is on record?
Answer: The activity of the apoenzyme was partly reactivated by the addition of FMN
